Measurements as given in ChEMBL document CHEMBL1150515, “Synthesis and structure-activity relationships of novel THF 1-methylcarbapenems II” (1997).
Converted amounts (≈) assume the structure as drawn.

Test system: not listed separately
Assay: Antimicrobial activity against Citrobacter freundii (GC 2211)
Type: functional
Settings: not given

Compound	MIC
C[C@H](N)C(=O)NCC1CC(SC2=C(C(=O)[O-])N3C(=O)[C@H]([C@@H](C)O)[C@H]3[C@H]2C)CO1.[Na+] (stereo not given in full)	1 µg/mL
C[C@@H](O)[C@H]1C(=O)N2C(C(=O)O)=C(SCCNC=N)C[C@H]12 [IMIPENEM ANHYDROUS]	0.25 µg/mL (≈ 0.835 µM)
C[C@H](N)C(=O)N[C@@H](C)C(=O)NC[C@H]1OCC[C@H]1SC1=C(C(=O)[O-])N2C(=O)[C@H]([C@@H](C)O)[C@H]2[C@H]1C.[Na+]	8 µg/mL

Test system: not listed separately
Assay: Antimicrobial activity against Morganella morganii (GC 2213)
Type: functional
Settings: not given

Compound	MIC
C[C@H](N)C(=O)NCC1CC(SC2=C(C(=O)[O-])N3C(=O)[C@H]([C@@H](C)O)[C@H]3[C@H]2C)CO1.[Na+] (stereo not given in full)	1 µg/mL
C[C@@H](O)[C@H]1C(=O)N2C(C(=O)O)=C(SCCNC=N)C[C@H]12 [IMIPENEM ANHYDROUS]	1 µg/mL (≈ 3.34 µM)
C[C@H](N)C(=O)N[C@@H](C)C(=O)NC[C@H]1OCC[C@H]1SC1=C(C(=O)[O-])N2C(=O)[C@H]([C@@H](C)O)[C@H]2[C@H]1C.[Na+]	2 µg/mL

Test system: not listed separately
Assay: Antimicrobial activity against Xanthomonas maltophilia (GC 562)
Type: functional
Settings: Stenotrophomonas maltophilia

Compound	MIC
C[C@H](N)C(=O)NCC1CC(SC2=C(C(=O)[O-])N3C(=O)[C@H]([C@@H](C)O)[C@H]3[C@H]2C)CO1.[Na+] (stereo not given in full)	> 128 µg/mL
C[C@@H](O)[C@H]1C(=O)N2C(C(=O)O)=C(SCCNC=N)C[C@H]12 [IMIPENEM ANHYDROUS]	> 128 µg/mL
C[C@H](N)C(=O)N[C@@H](C)C(=O)NC[C@H]1OCC[C@H]1SC1=C(C(=O)[O-])N2C(=O)[C@H]([C@@H](C)O)[C@H]2[C@H]1C.[Na+]	> 128 µg/mL

Test system: not listed separately
Assay: Antimicrobial activity against Enterobacter cloacae (GC 2209)
Type: functional
Settings: not given

Compound	MIC
C[C@H](N)C(=O)NCC1CC(SC2=C(C(=O)[O-])N3C(=O)[C@H]([C@@H](C)O)[C@H]3[C@H]2C)CO1.[Na+] (stereo not given in full)	0.25 µg/mL
C[C@@H](O)[C@H]1C(=O)N2C(C(=O)O)=C(SCCNC=N)C[C@H]12 [IMIPENEM ANHYDROUS]	≤ 0.06 µg/mL
C[C@H](N)C(=O)N[C@@H](C)C(=O)NC[C@H]1OCC[C@H]1SC1=C(C(=O)[O-])N2C(=O)[C@H]([C@@H](C)O)[C@H]2[C@H]1C.[Na+]	2 µg/mL

Target: T1, Dipeptidase 1 (Sus scrofa) (UniProt P22412)
T1 sequence (whole entry): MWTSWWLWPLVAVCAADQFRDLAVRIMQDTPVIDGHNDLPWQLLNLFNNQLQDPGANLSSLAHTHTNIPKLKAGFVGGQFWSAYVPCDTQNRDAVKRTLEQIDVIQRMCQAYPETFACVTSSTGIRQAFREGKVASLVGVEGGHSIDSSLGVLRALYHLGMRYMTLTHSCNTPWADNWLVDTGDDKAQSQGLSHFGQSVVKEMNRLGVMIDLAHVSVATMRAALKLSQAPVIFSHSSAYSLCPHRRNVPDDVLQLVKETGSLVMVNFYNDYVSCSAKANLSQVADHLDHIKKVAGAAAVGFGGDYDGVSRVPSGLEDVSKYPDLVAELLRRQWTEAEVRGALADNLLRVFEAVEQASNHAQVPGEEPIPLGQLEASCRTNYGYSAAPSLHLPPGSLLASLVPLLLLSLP
Assay: Relative hydrolysis to that of imipenem was determined by hog renal dehydropeptidase
Settings: not given

Compound	Relative hydrolysis
C[C@@H](O)[C@H]1C(=O)N2C(C(=O)O)=C(SCCNC=N)C[C@H]12 [IMIPENEM ANHYDROUS]	100
C[C@H](N)C(=O)N[C@@H](C)C(=O)NC[C@H]1OCC[C@H]1SC1=C(C(=O)[O-])N2C(=O)[C@H]([C@@H](C)O)[C@H]2[C@H]1C.[Na+]	13

Test system: Pseudomonas aeruginosa
Assay: Antimicrobial activity against Pseudomonas aeruginosa (ATCC 27853)
Type: functional
Settings: not given

Compound	MIC
C[C@H](N)C(=O)NCC1CC(SC2=C(C(=O)[O-])N3C(=O)[C@H]([C@@H](C)O)[C@H]3[C@H]2C)CO1.[Na+] (stereo not given in full)	32 µg/mL
C[C@@H](O)[C@H]1C(=O)N2C(C(=O)O)=C(SCCNC=N)C[C@H]12 [IMIPENEM ANHYDROUS]	1 µg/mL (≈ 3.34 µM)
C[C@H](N)C(=O)N[C@@H](C)C(=O)NC[C@H]1OCC[C@H]1SC1=C(C(=O)[O-])N2C(=O)[C@H]([C@@H](C)O)[C@H]2[C@H]1C.[Na+]	64 µg/mL

Test system: not listed separately
Assay: Antimicrobial activity against Enterococcus faecium (GC 1182)
Type: functional
Settings: not given

Compound	MIC
C[C@H](N)C(=O)NCC1CC(SC2=C(C(=O)[O-])N3C(=O)[C@H]([C@@H](C)O)[C@H]3[C@H]2C)CO1.[Na+] (stereo not given in full)	> 128 µg/mL
C[C@@H](O)[C@H]1C(=O)N2C(C(=O)O)=C(SCCNC=N)C[C@H]12 [IMIPENEM ANHYDROUS]	64 µg/mL (≈ 214 µM)
C[C@H](N)C(=O)N[C@@H](C)C(=O)NC[C@H]1OCC[C@H]1SC1=C(C(=O)[O-])N2C(=O)[C@H]([C@@H](C)O)[C@H]2[C@H]1C.[Na+]	> 128 µg/mL

Test system: Escherichia coli
Assay: Antimicrobial activity against Escherichia coli (ATCC 25922)
Type: functional
Settings: not given

Compound	MIC
C[C@H](N)C(=O)NCC1CC(SC2=C(C(=O)[O-])N3C(=O)[C@H]([C@@H](C)O)[C@H]3[C@H]2C)CO1.[Na+] (stereo not given in full)	≤ 0.06 µg/mL
C[C@@H](O)[C@H]1C(=O)N2C(C(=O)O)=C(SCCNC=N)C[C@H]12 [IMIPENEM ANHYDROUS]	0.12 µg/mL (≈ 0.401 µM)
C[C@H](N)C(=O)N[C@@H](C)C(=O)NC[C@H]1OCC[C@H]1SC1=C(C(=O)[O-])N2C(=O)[C@H]([C@@H](C)O)[C@H]2[C@H]1C.[Na+]	≤ 0.06 µg/mL

Test system: Pseudomonas aeruginosa
Assay: Antimicrobial activity against Pseudomonas aeruginosa (GC 1544 OprD)
Type: functional
Settings: not given

Compound	MIC
C[C@H](N)C(=O)NCC1CC(SC2=C(C(=O)[O-])N3C(=O)[C@H]([C@@H](C)O)[C@H]3[C@H]2C)CO1.[Na+] (stereo not given in full)	64 µg/mL
C[C@@H](O)[C@H]1C(=O)N2C(C(=O)O)=C(SCCNC=N)C[C@H]12 [IMIPENEM ANHYDROUS]	16 µg/mL (≈ 53.4 µM)
C[C@H](N)C(=O)N[C@@H](C)C(=O)NC[C@H]1OCC[C@H]1SC1=C(C(=O)[O-])N2C(=O)[C@H]([C@@H](C)O)[C@H]2[C@H]1C.[Na+]	> 128 µg/mL

Test system: Escherichia coli
Assay: Antimicrobial activity against Escherichia coli (GC 2205)
Type: functional
Settings: not given

Compound	MIC
C[C@H](N)C(=O)NCC1CC(SC2=C(C(=O)[O-])N3C(=O)[C@H]([C@@H](C)O)[C@H]3[C@H]2C)CO1.[Na+] (stereo not given in full)	≤ 0.06 µg/mL
C[C@@H](O)[C@H]1C(=O)N2C(C(=O)O)=C(SCCNC=N)C[C@H]12 [IMIPENEM ANHYDROUS]	0.12 µg/mL (≈ 0.401 µM)
C[C@H](N)C(=O)N[C@@H](C)C(=O)NC[C@H]1OCC[C@H]1SC1=C(C(=O)[O-])N2C(=O)[C@H]([C@@H](C)O)[C@H]2[C@H]1C.[Na+]	0.12 µg/mL

Target: T1, Dipeptidase 1 (Sus scrofa)
Assay: Relative hydrolysis of compound to that of imipenem was determined by hog renal dehydropeptidase
Type: functional
Settings: not given

Compound	Relative hydrolysis
C[C@H](N)C(=O)NCC1CC(SC2=C(C(=O)[O-])N3C(=O)[C@H]([C@@H](C)O)[C@H]3[C@H]2C)CO1.[Na+] (stereo not given in full)	10

Test system: not listed separately
Assay: Antimicrobial activity against Enterococcus faecalis (GC 842)
Type: functional
Settings: not given

Compound	MIC
C[C@H](N)C(=O)NCC1CC(SC2=C(C(=O)[O-])N3C(=O)[C@H]([C@@H](C)O)[C@H]3[C@H]2C)CO1.[Na+] (stereo not given in full)	4 µg/mL
C[C@@H](O)[C@H]1C(=O)N2C(C(=O)O)=C(SCCNC=N)C[C@H]12 [IMIPENEM ANHYDROUS]	1 µg/mL (≈ 3.34 µM)
C[C@H](N)C(=O)N[C@@H](C)C(=O)NC[C@H]1OCC[C@H]1SC1=C(C(=O)[O-])N2C(=O)[C@H]([C@@H](C)O)[C@H]2[C@H]1C.[Na+]	4 µg/mL

Test system: Staphylococcus aureus
Assay: Antimicrobial activity against Staphylococcus aureus (ATCC 29213)
Type: functional
Settings: not given

Compound	MIC
C[C@H](N)C(=O)NCC1CC(SC2=C(C(=O)[O-])N3C(=O)[C@H]([C@@H](C)O)[C@H]3[C@H]2C)CO1.[Na+] (stereo not given in full)	0.12 µg/mL
C[C@@H](O)[C@H]1C(=O)N2C(C(=O)O)=C(SCCNC=N)C[C@H]12 [IMIPENEM ANHYDROUS]	≤ 0.06 µg/mL
C[C@H](N)C(=O)N[C@@H](C)C(=O)NC[C@H]1OCC[C@H]1SC1=C(C(=O)[O-])N2C(=O)[C@H]([C@@H](C)O)[C@H]2[C@H]1C.[Na+]	1 µg/mL

Test system: Acinetobacter calcoaceticus
Assay: Antimicrobial activity against Acinetobacter calcoaceticus (GC 756)
Type: functional
Settings: not given

Compound	MIC
C[C@H](N)C(=O)NCC1CC(SC2=C(C(=O)[O-])N3C(=O)[C@H]([C@@H](C)O)[C@H]3[C@H]2C)CO1.[Na+] (stereo not given in full)	8 µg/mL
C[C@@H](O)[C@H]1C(=O)N2C(C(=O)O)=C(SCCNC=N)C[C@H]12 [IMIPENEM ANHYDROUS]	0.25 µg/mL (≈ 0.835 µM)
C[C@H](N)C(=O)N[C@@H](C)C(=O)NC[C@H]1OCC[C@H]1SC1=C(C(=O)[O-])N2C(=O)[C@H]([C@@H](C)O)[C@H]2[C@H]1C.[Na+]	32 µg/mL

Test system: Staphylococcus aureus
Assay: Antimicrobial activity against methicillin - resistant Staphylococcus aureus (GC 2220)
Type: functional
Settings: not given

Compound	MIC
C[C@H](N)C(=O)NCC1CC(SC2=C(C(=O)[O-])N3C(=O)[C@H]([C@@H](C)O)[C@H]3[C@H]2C)CO1.[Na+] (stereo not given in full)	8 µg/mL
C[C@@H](O)[C@H]1C(=O)N2C(C(=O)O)=C(SCCNC=N)C[C@H]12 [IMIPENEM ANHYDROUS]	1 µg/mL (≈ 3.34 µM)
C[C@H](N)C(=O)N[C@@H](C)C(=O)NC[C@H]1OCC[C@H]1SC1=C(C(=O)[O-])N2C(=O)[C@H]([C@@H](C)O)[C@H]2[C@H]1C.[Na+]	64 µg/mL

Test system: Escherichia coli
Assay: Antimicrobial activity against Escherichia coli (GC 1792)
Type: functional
Settings: not given

Compound	MIC
C[C@H](N)C(=O)NCC1CC(SC2=C(C(=O)[O-])N3C(=O)[C@H]([C@@H](C)O)[C@H]3[C@H]2C)CO1.[Na+] (stereo not given in full)	≤ 0.06 µg/mL
C[C@@H](O)[C@H]1C(=O)N2C(C(=O)O)=C(SCCNC=N)C[C@H]12 [IMIPENEM ANHYDROUS]	≤ 0.06 µg/mL
C[C@H](N)C(=O)N[C@@H](C)C(=O)NC[C@H]1OCC[C@H]1SC1=C(C(=O)[O-])N2C(=O)[C@H]([C@@H](C)O)[C@H]2[C@H]1C.[Na+]	≤ 0.06 µg/mL
